Where “and” joins values, the source holds several entries; their conditions need not be identical. Equal values may be shown once.
Assays:
[1] = biological target: T1, Inhibitor of nuclear factor kappa-B kinase subunit alpha (Homo sapiens, UniProt O15111); assay: Inhibitory activity against IKK1
T1 sequence (O15111 whole entry): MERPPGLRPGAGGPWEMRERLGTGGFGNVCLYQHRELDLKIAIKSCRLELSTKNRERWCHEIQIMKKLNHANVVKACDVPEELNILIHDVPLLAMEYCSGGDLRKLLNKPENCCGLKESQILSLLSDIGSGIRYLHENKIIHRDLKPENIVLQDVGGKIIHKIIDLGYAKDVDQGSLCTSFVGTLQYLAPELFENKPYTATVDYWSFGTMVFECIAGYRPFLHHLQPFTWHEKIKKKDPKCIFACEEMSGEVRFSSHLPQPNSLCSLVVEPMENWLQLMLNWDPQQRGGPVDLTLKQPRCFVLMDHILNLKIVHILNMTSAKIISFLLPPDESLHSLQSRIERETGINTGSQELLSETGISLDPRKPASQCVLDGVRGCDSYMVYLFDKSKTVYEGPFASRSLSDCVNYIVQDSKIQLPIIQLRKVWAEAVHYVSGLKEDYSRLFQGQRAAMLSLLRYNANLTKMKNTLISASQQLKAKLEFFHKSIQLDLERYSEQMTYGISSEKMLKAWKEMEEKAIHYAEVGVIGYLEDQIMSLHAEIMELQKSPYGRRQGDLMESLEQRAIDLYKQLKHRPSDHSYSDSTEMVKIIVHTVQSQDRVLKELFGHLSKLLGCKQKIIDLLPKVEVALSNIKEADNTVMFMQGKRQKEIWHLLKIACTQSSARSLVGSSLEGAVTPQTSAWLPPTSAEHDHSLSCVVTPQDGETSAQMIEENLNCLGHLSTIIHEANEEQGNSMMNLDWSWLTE

Homo sapiens = species on record: Homo sapiens; assay: Selectivity for IKK2/IKK1
[2] = biological target: T2, Inhibitor of nuclear factor kappa-B kinase subunit beta (Homo sapiens, UniProt O14920); assay: Inhibitory activity against IKK2
T2 sequence (O14920 whole entry): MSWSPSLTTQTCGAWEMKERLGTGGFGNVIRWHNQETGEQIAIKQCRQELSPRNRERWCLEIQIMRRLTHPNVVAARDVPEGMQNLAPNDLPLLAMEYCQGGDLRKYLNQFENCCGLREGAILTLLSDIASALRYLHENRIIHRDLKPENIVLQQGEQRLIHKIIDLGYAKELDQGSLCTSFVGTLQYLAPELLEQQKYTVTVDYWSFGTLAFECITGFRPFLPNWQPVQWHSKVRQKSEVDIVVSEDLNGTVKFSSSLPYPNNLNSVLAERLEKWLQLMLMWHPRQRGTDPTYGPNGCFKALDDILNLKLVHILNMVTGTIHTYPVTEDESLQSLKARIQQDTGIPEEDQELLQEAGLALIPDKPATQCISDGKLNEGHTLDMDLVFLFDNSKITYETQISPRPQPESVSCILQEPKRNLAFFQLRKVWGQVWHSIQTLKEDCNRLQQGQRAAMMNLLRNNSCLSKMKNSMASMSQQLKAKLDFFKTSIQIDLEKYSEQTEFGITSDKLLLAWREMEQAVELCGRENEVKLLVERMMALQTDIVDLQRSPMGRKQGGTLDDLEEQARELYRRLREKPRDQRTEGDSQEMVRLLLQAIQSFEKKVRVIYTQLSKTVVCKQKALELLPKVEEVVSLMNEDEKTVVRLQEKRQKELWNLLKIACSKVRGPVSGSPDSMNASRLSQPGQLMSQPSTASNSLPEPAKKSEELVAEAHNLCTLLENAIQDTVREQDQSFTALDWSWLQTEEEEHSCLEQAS

IC50 [1]	Selectivity (Homo sapiens)	IC50 [2]	SMILES
5130 nM	62	83 nM	N#Cc1cccc(Nc2nccc(-c3ccc(S(=O)(=O)N4CCNCC4)cc3)n2)c1
1170 nM	13	91 nM	O=S(=O)(c1ccc(-c2ccnc(Nc3ccccc3)n2)cc1)N1CCNCC1
3980 nM	83	48 nM	NC(=O)c1ccc(Nc2nccc(-c3ccc(S(=O)(=O)N4CCNCC4)cc3)n2)cc1
4070 nM	–	117 nM	O=S(=O)(c1ccc(-c2ccnc(Nc3cc(F)cc(F)c3)n2)cc1)N1CCNCC1
2340 nM	26	91 nM	C[S+]([O-])c1ccc(Nc2nccc(-c3ccc(S(=O)(=O)N4CCNCC4)cc3)n2)cc1 (stereo unspecified)
6920 nM	105	66 nM	O=[N+]([O-])c1ccc(Nc2nccc(-c3ccc(S(=O)(=O)N4CCNCC4)cc3)n2)cc1
1230 nM	–	214 nM	COc1ccc(Nc2nccc(-c3ccc(S(=O)(=O)N4CCNCC4)cc3)n2)cc1
2090 nM	–	269 nM	Cc1ccc(Nc2nccc(-c3ccc(S(=O)(=O)N4CCNCC4)cc3)n2)cc1

Further lines, the molecule ahead of its results:

SMILES	IC50 [1]	Selectivity (Homo sapiens)	IC50 [2]
O=S(=O)(c1ccc(-c2ccnc(Nc3ccc(C(F)(F)F)cc3)n2)cc1)N1CCNCC1	3980 nM	8	513 nM
CC(=O)c1cc2cc(-c3ccc(Nc4nccc(-c5ccc(S(=O)(=O)N6CCNCC6)cc5)n4)cc3)ccc2o1	1700 nM	65	26 nM
NS(=O)(=O)c1ccc(Nc2nccc(-c3ccc(S(=O)(=O)N4CCNCC4)cc3)n2)cc1	245 nM	21	11 nM
NC(=O)c1c[nH]c2ccc(-c3ccc(Nc4nccc(-c5ccc(S(=O)(=O)N6CCNCC6)cc5)n4)cc3)cc12	–	6	550 nM and 146 nM
CCCCc1ccc(Nc2nccc(-c3ccc(S(=O)(=O)N4CCNCC4)cc3)n2)cc1	2690 nM	9	309 nM
NC(=O)Nc1ccc(Nc2nccc(-c3ccc(S(=O)(=O)N4CCNCC4)cc3)n2)cc1	1480 nM	10	155 nM
COc1cc(Nc2nccc(-c3ccc(S(=O)(=O)N4CCNCC4)cc3)n2)cc(OC)c1OC	155 nM	1	145 nM
